Data from US6348464B1, “Pyrrolecarbonylimino derivatives as naaladase inhibitors” (Guilford Pharmaceuticals, Inc., priority 1999, dated 2002).
Where a name gives a salt, the structure may show the parent alone. Read-outs that look alike come from different tables or passages of the source.

Tests used:
[1] = biological target: T1, NAALADase (Homo sapiens, UniProt Q04609); test: In vitro inhibition of NAALADase activity; type: biochemical; conditions: 3-H-NAAG substrate, 37° C.; read-out: K1 (nM), in vitro inhibition of NAALADase activity
T1 construct: from tissue
Method: Protocol For Assaying In Vitro Inhibition of NAALADase Activity
The following were combined in each assay tube: 100 μL of 10 mM CoCl2, 250 μL of 200 mM Tris chloride, 100 μL tissue, 100 μL of 10 mM NAALADase inhibitor in Bakers H2O, and Bakers H2O to make a total volume of 950 μL. Each tube was then incubated for 10 minutes in a 37° C. water bath. 50 μL of 3-H-NAAG was then added to each assay tube and incubated for an additional 15 minutes in a 37° C. water bath. The assay was stopped by adding 1.0 ml of 0.1 M sodium phosphate.
Glutamate released by the action of the NAALADase enzyme was separated from the assay solution using an anion exchange resin. The resin was equilibrated to 25° C., 2.0 ml of the resin was added to a Pasteur pipette pre-loaded with a single glass bead, and each column was washed twice with distilled H2O. A column was placed over a scintillation vial and 200 μL of an assay sample was loaded onto the column. After draining, glutamate was eluted using two 1.0 ml washes of 1 M formic acid. After addition of 10 ml of scintillation cocktail, each sample was counted for 2 minutes on a scintillation counter.

[2] = system: cortical cell cultures; test: In vitro assay on ischemia (potassium cyanide and 2-deoxyglucose insult); type: cell-based; conditions: 1 h, read-out: EC50, concentration required to cause a 50% reduction in glutamate toxicity following an ischemic insult
Method: To examine the in vitro effect of the compounds of formula I on ischemia, cortical cell cultures were treated with various compounds of formula I during an ischemic insult utilizing potassium cyanide and 2-deoxyglucose, and for one hour thereafter (for experimental details, see Vornov et al., J. Neurochem., Vol. 65, No. 4, pp. 1681-1691 (1995)). Neuroprotective effect is expressed as EC50, the concentration of the compound which is required to cause a 50% reduction in glutamate toxicity following an ischemic insult.

T1 sequence (Q04609 whole entry): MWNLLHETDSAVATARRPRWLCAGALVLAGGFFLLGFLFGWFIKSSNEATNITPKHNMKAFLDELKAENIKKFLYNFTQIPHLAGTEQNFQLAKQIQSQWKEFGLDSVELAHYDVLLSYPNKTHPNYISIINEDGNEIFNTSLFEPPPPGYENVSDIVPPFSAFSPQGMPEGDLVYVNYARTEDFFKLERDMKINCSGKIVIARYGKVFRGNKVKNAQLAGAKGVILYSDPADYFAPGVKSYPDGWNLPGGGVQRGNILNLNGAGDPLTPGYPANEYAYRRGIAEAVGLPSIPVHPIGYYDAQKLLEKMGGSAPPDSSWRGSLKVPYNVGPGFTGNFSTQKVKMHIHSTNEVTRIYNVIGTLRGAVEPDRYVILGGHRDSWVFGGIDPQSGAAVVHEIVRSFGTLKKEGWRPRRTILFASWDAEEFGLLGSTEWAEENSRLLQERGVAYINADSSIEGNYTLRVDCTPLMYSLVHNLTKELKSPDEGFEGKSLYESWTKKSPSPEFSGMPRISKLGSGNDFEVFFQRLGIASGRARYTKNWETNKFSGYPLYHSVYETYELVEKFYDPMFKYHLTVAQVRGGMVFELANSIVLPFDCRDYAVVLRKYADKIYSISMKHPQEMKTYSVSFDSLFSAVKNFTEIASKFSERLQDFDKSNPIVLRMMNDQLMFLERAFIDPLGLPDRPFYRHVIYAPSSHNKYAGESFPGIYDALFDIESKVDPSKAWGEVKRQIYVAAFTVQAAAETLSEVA

| Structure (SMILES) | Ki [1] [nM] | EC50 [2] [nM] | EC50 ([2]; cortical cell cultures, treated during potassium cyanide and 2-deoxyglucose insult and for one hour thereafter) [nM] |
| --- | --- | --- | --- |
| Cc1ccc(C(=O)Nc2ccc(S(=O)(=O)O)c3cc(S(=O)(=O)O)cc(S(=O)(=O)O)c23)cc1NC(=O)c1cccc(NC(=O)Nc2cccc(C(=O)Nc3cc(C(=O)Nc4ccc(S(=O)(=O)O)c5cc(S(=O)(=O)O)cc(S(=O)(=O)O)c45)ccc3C)c2)c1 [Suramin, sodium salt, 8,8′-[carbonylbis[imino-3,1-phenylenecarbonylimino (4-methyl-3,1-phenylene)carbonylimino]]bis-1,3,5-naphthalenetrisulfonic acid hexasodium salt] | 527 | 24.7 |  |
| O=C(Nc1ccc(S(=O)(=O)O)c2cc(S(=O)(=O)O)cc(S(=O)(=O)O)c12)c1cccc([N+](=O)[O-])c1 [8-(3-nitrobenzamido)-1,3,5-naphthalenetrisulfonic acid] | 20200 |  | > 1000 |
